Patent publication US7932286B2, “Method for treating colonic viscerosensitivity and spasticity” (priority 2007, dated 2011)

Tested on: colonic viscerosensitivity and spasticity induced by colonoscopy
Assay: Video-endoscopic colonoscopy after oral pre-treatment, individual case studies
Type: in vivo, human
Excerpt: The patient had received a complete colonoscopy three years before in a hospital based gastro-intestinal unit, and this experience left them very anxious concerning the need for a repeat examination. The occurrence of pain during the procedure as well as the discomfort lasting few hours following the colonoscopic examination, despite parenteral sedation/analgesia, was still vivid in their memories. They wanted to negotiate an alternate diagnostic procedure such as a air-contrast barium enema. […] They were instructed to completed this pharmacological preparation by taking two Fleet® Phospho-soda 45 ml vials with five or six glasses of liquid one in the evening before the examination, and one in the morning two hours before the examination to clean and prepare “clean-rep” the colon. They presented alone to the endoscopy clinic and they were appropriately positioned on their left side on the examination table, and the video-endoscopic colonoscopy was initiated by the endoscopist. The colonoscopy was easily completed to the caecum in 14 minutes. […] The whole colonic examination including the accurate examination of the colon upon retraction of the instrument lasted a total of 25 minutes and was negative for mucosal lesions and for endoluminal polypoid formations. The patient then dressed up and walked to the endoscopist's office to receive the good results of the examination. They were asked several questions on their experience of the new pharmacological preparation as compared to their previous hospital-based unit experience with parenteral sedation/analgesia. […] The endoscopist and the assistant nurse were very satisfied with the ease and shortness of the completed procedure.
As part of a complete investigation, a colonoscopy was planned. They were prescribed Trimebutine maleate 200 mg tablets to be taken orally three times a day for three days before the scheduled examination. They were instructed to complete the pharmacological preparation by taking two Fleet® Phospho-soda 45 ml vials with five or six glasses of liquid, one in the evening before the examination, and one in the morning two hours before the examination to clean and prepare “clean-prep” the colon. They presented to the endoscopy unit with doubts that they could sustain the planned examination without any other drug preparation, having seen in their career many patients having barely tolerated this procedure of full colonoscopy, even after having received before the examination meperidine and midazolam intravenously. They also remembered the “stress experienced by the endoscopist and the assistant nurse working at completing the examination rapidly and successfully reaching the caecum in these patients”. Nonetheless, they consented at trying to receive the examination without further pharmacological preparation, with the promise by the physician that the procedure would be interrupted at their request in the case that they could not tolerate the pain or discomfort. After appropriately positioning the patient on their left side, the instrument was delicately introduced in their rectum, and the progression of the instrument gently initiated. They asked to have their head elevated with a pillow so they could see the video monitor and watch the video-endoscopic recording of their examination. […] The physician and the nurse were surprised by the fact that such a patient presenting a clinical irritable bowel syndrome could experience so little discomfort during the examination since these patients characteristically are chronically suffering from a very low threshold of viscerosentivity with solid or gaseous distension of the colon. After the procedure, they commented that they would accept to repeat the examination any time, and would not hesitate to recommend this pharmacological preparation to patients needing complete colonoscopy, and would be ready to reassure them that there were no more reasons to fear to receive such examination.

[1] = Example 1, patient, 200 mg tablets orally three times a day for three days before examination
[2] = Example 2, patient with clinical irritable bowel syndrome, 200 mg tablets orally three times a day for three days

## Trimebutine maleate
Example 1, patient
  recovery after the procedure: capable to drive home by themself without any assistance or recovery time
[1]
  colonic spastic contractions during colonoscopy: No colonic spastic contractions occurred
  duration of whole colonic examination including retraction of the instrument: 25 min
  pain or discomfort generated by air-distension of the colon: did not generate pain or discomfort
Example 1, patient, 200 mg tablets orally three times a day for three days before examination, no sedation
  time in which colonoscopy was completed to the caecum: 14 min
Example 1, patient, questioned after the examination
  patient-reported pain and discomfort during the procedure: did not experience any pain and very mild discomfort
[2]
  discomfort experienced by the patient during the examination: only mild but perfectly tolerable discomfort
  progression of the instrument in the patient: easy, painless
  spastic contractions during colonoscopy: No spastic contractions delayed the progression of the instrument
Example 2, patient with clinical irritable bowel syndrome, 200 mg tablets orally three times a day for three days before examination, no sedation
  time in which the caecum was reached: 12 min
